Results: US11859252B2, “Diagnostic and therapeutic methods for cancer” (Genentech, Inc., priority 2017, dated 2024)
“Also recorded” adds a separate entry of the source.

How the values were obtained:
[1] = test system: pMEK, pERK, pRSK, pAKT; assay: Immunoblot of pathway markers after compound treatment; format: cell-based; conditions: for induction of pMEK by PI3K inhibition: A549 and HCT116 cells, FIGS. 7B-7D
Method: Cells lysed in lysis buffer (0.5% NP40, 20 mM Tris, pH 7.5, 137 mM NaCl, 10% glycerol, 1 mM EDTA) plus protease inhibitor mixture-complete mini (Roche Applied Science, 11836170001) and phosphatase inhibitor mix (Thermo, 78426). Lysates were centrifuged at 15,000 rpm for 10 minutes and the protein concentration determined using BCA (Thermo, 23227). Equal amounts of protein were subjected to SDS-PAGE NuPAGE 4-12% Bis-Tris Gel (Novex, WG-1403) and transferred to nitrocellulose membrane (BioRad, 170-4159). After blocking in blocking buffer (Li-Cor, 927-40000), membranes were incubated with the indicated primary antibodies and analyzed either by the addition of secondary antibodies IRDye 680LT Goat anti-Mouse IgG (H+L) (Li-Cor, 926-68050) or IRDye 800CW goat anti-Rabbit IgG (H+L) (Li-Cor, 926-32211). The membranes were visualized on the LiCor Odyssey CLx Scanner.

[2] = test system: A549 cells; assay: 12×12 matrix titration, Bliss excess, […]-GLO; format: cell-based; conditions: 3 days
Method: For combination synergy studies, cells were plated in 384-well plates (Corning) and treated with varying concentrations of compound, either alone or in combination for 72 hours. Cell viability was determined using CellTiter-Glo Luminescent Cell Viability Assay (Promega, G7573). Synergistic effects were determined using the Bliss independence analysis methods (Greco et al. Pharmacol. Rev. 47: 331-385, 1995; Chou and Talalay. Adv. Enzyme Regul. 22:27-55, 1984; Chou. Cancer Res. 70: 440-446, 2010; Bliss. Ann. Appl. Biol. 25: 31, 1939).

[3] = test system: MAPK pathway signaling (pERK, pRSK, DUSP6, SPRY4); assay: Tumor pharmacodynamics in tumor-bearing mice; format: in vivo; conditions: combination of LY3009120 and GDC-0973 vs either alone, 4 days of treatment, FIG. 3C
Method: GEM model tumor samples were collected and stored in RNALater (Qiagen, Valencia, CA). Total RNA was extracted with RNeasy Plus Mini kit (Qiagen) following manufacturer's instructions. RNA quantity was determined using Nanodrop (Thermo Scientific, Waltham, MA).
Transcriptional readouts were assessed using either a Fluidigm instrument or standard RT-PCR assays according to manufacturer's recommendations. RNA (100 ng) was subjected to cDNA synthesis/pre-amplification reactions using the Applied Biosystems High Capacity cDNA RT Kit and TaqMan PreAmp Master Mix as per the manufacturer's protocol (Life Technologies, Carlsbad, CA). […]
To prepare protein lysates, cells were washed once with ice-cold PBS and lysed in 1× Cell Extraction Buffer (Invitrogen) supplemented with protease inhibitor tablet (Roche) and phosphatase inhibitors (Sigma). Protein concentration was determined using BCA Protein Assay (Pierce). […] Antigen-antibody interaction was detected with HRP-conjugated goat anti-rabbit and goat anti-mouse antibodies (Jackson ImmunoResearch) using enhanced chemiluminescence detection reagents (Pierce) or with IRDye 800 conjugated, affinity purified anti rabbit IgG (LI-COR Biosciences) and Alexa Fluor 680 goat anti mouse IgG (Life Technologies) secondary antibodies using the Odyssey Infrared Imaging System (LI-COR Biosciences).

[4] = Plasma and tumor drug concentrations; format: in vivo, mice; conditions: combination with GDC-0973, FIG. 3D
[5] = test system: NRAS mutant melanoma cell line; assay: Viability of NRAS mutant melanoma versus BRAF-V600E and wild-type lines; format: cell-based; conditions: FIG. 8A
Method: Compounds were screened in nine-point dose response using a three-fold dilution. Cells were seeded into 384-well plates 24 hours prior to compound addition. Cells were then incubated with compound for 72 hours or 120 hours before assaying viability (CellTiter-Glo, Promega). Assays were performed in biological triplicate. […] Mean viability is equivalent to the area under the log-dose/viability curve divided by the total number of tested doses.

[6] = test system: HCT116 colon xenograft tumor; assay: HCT116 colon xenograft tumor model
Method: The formulations were mixed well by vortexing before dosing. Test articles were stored in a refrigerator set to maintain a temperature range of 4° C.-7° C.
Only animals that appeared to be healthy and that were free of obvious abnormalities were used for each study. Tumor volumes were determined using digital calipers (Fred V. Fowler Company, Inc.) using the formula (L×W×W)/2. […] Mice were weighed twice a week using a standard scale.

[7] = test system: A549 cells; assay: Clonogenic (colony growth) assay; format: cell-based; conditions: 8 days; crystal violet; FIG. 2F, 5E
Method: Cells were plated in duplicate in 6-well plates at 10,000 cells/well, allowed to attach overnight and treated for 8 days with the indicated compounds. Media with appropriate compounds was replenished every 72 hours. At 8 days cells were rinsed once with PBS, fixed and stained with crystal violet solution (Sigma Aldrich, HT90132) for 20 minutes and washed with water.

[8] = test system: A549 KRAS-mutant lung cancer cell line; assay: Tool compound combination screen with AZ-628; format: cell-based; conditions: 1 μM AZ-628 versus DMSO, FIG. 1D-1E
Method: A compound library comprising 480 compounds arrayed in 9-point dose response was screened in the absence or presence of a fixed dose of either AZ-628 or DMSO in A549 cells. A549 cells were seeded into 384 well plates, and compound was added 24 h later. Cell viability was determined 120 h post-compound addition (CellTiter Glo). Curves were fitted, and both IC50 and mean viability metrics were calculated. The IC50 is the dose at which inhibition is 50% relative to untreated wells. The mean viability is the average of the fitted viabilities at each tested dose. Mean viability is equivalent to the area under the log-dose/viability curve divided by the total number of tested doses. All data were fitted using Genedata Screener (GDS) software. The combination metric was the difference in mean viability between the AZ-628 treated arm and the DMSO treated arm for each compound.

[9] = test system: BRAF-V600E cell lines; assay: 3-day […]-GLO viability assay of RAF inhibitors, BRAF-V600E lines; format: cell-based; conditions: single agent; BRAF-V600E mutant cell lines; FIG. 1A
Method: (§1) Seeding densities were optimized for each cell line to obtain 70-80% confluence after 4 days. The cells were plated into 384-well plates (Griener, 781091) and then treated with compound the following day in a final DMSO concentration of 0.1%. The relative numbers of viable cells were measured by luminescence using CellTiter-Glo (Promega, G7573). Viability curves were generated using a four-parameter fit in GraphPad Prism 6.

[10] = test system: KRAS mutant cell lines; assay: 3-day […]-GLO viability assay of RAF inhibitors, KRAS mutant lines; format: cell-based; conditions: single agent, FIG. 1A
Method: as §1

[11] = test system: pMEK; assay: Phospho (Ser 217/221)/Total MEK1/2 assay; format: cell-based; conditions: KRAS mutant; ratio of P-MEK and total MEK; FIG. 1B
Method: Cells were plated at a density of 20,000 cells per 96-well and treated with compound the following day for two hours in a final concentration of 0.2% DMSO. After two hours, the cells were lysed according to manufacturer's protocol (Meso Scale Discovery, K15129D), and the lysates were added to BSA-blocked plates for overnight capture at 4° C. The following day the assay plates were washed three times with TBST and the detection antibody was added for one hour at RT. The plates were then washed three times with TBST. 1× read buffer was added to the plate and immediately read on the Meso Scale Discovery SECTOR Imager 6000. Curves were generated using Graph Pad Prism 6.

[12] = test system: RAS-GTP; assay: Ras activity assay (RAF1-RBD pull-down); format: cell-based; conditions: A549, 24 hours, RAF1-RBD pull-down, FIG. 7E
Method: Levels of active GTP-loaded Ras were determined by GST-Raf-RBD pull-down assay (Thermo Scientific, 16117). In brief, GST-Raf-RBD fusion proteins were incubated with glutathione beads, and cells were collected in lysis buffer as recommended by the manufacturer. The cell lysates were incubated with the GST-Raf-RBD immobilized beads for 1.5 hours at 4° C. Bound proteins were eluted with SDS sample buffer and analyzed by Western blot.

## CNS(=O)(=O)Nc1nccc(Cc2c(C)c3ccc(Oc4ncccn4)cc3oc2=O)c1F [CH-6766]
[1]; A549 cells, 24 hours at 1 μM, FIG. 1F
  induction of pMEK: do not induce pMEK
[2]; full-dose Bliss matrix, FIG. 1G
  synergy with AZ-628 (Bliss excess): less synergistic with AZ-628

## CNc1ncc2cc(-c3cc(NC(=O)NCCC(C)(C)C)c(F)cc3C)c(C)nc2n1 [LY3009120]
[3]
  suppression of DUSP6 and SPRY4 in tumor: deeper suppression of downstream MAPK target genes, DUSP6 and SPRY4
[3]; all time points
  suppression of pERK and pRSK in tumor: better suppression of pERK and pRSK
[4]
  drug exposure in combination: not due to increased drug exposure
[5]
  effect on mean viability, NRAS mutant vs BRAF-V600E: approximately equivalent effects on mean viability
[6]; HCT116, LY3009120+GDC-0973, FIG. 3A
  tumor growth, combination with cobimetinib: capable of effectively regressing the tumors
[6]; HCT116, LY-3009120 25 mg/kg IP QD, cobimetinib 5 mg/kg PO QD, FIG. 3A
  tumor growth, single agent: modestly inhibited tumor growth
[6]; HCT116 xenograft mice, combination with cobimetinib, FIG. 3B
  tolerability / body weight: well tolerated in the mice, resulting in little or minimal changes in body weight post-treatment
[7]
  synergy with cobimetinib in colony formation: marked synergy

## O=C(NOC[C@H](O)CO)c1ccc(F)c(F)c1Nc1ccc(I)cc1F [PD901]
[8]
  hit ranking / mean viability difference with AZ-628: scored highest among the compounds tested

## O=C(c1c(F)ccc(NS(=O)(=O)N2CC[C@@H](F)C2)c1F)c1c[nH]c2ncc(-c3cnc(C4CC4)nc3)cc12 [PLX-8394]
[9]
  activity in cell viability assay: showed activity in BRAF-V600E mutant cell lines
[10]
  activity in cell viability assay: but not in KRAS mutant cell lines
[2]; FIG. 2A
  synergy with cobimetinib (Bliss excess): did not synergize with MEK inhibitors in KRAS mutant cell lines
[11]
  paradoxical activation of downstream pMEK: do not induce paradoxical activation

## CC(C)(C)c1nc(-c2cccc(NS(=O)(=O)c3c(F)cccc3F)c2F)c(-c2ccnc(N)n2)s1 [dabrafenib]
[9]
  activity in cell viability assay: showed activity in BRAF-V600E mutant cell lines
[10]
  activity in cell viability assay: but not in KRAS mutant cell lines
[11]
  paradoxical activation of downstream pMEK: led to paradoxical activation of downstream pMEK in KRAS mutant tumors

## CS(=O)(=O)N1CCN(Cc2cc3nc(-c4cccc5[nH]ncc45)nc(N4CCOCC4)c3s2)CC1 [pictilisib]
[1]; A549, 24 hours, dose-dependent, FIG. 7D
  pERK and pRSK levels: increased pERK and pRSK levels
[1]; A549, pictilisib alone, 24 hours, FIG. 7G
  pAKT inhibition: robustly inhibit pAKT
[1]; 24 hours
  induction of pMEK by PI3K inhibition: doing so at lower concentrations; also recorded: dose-dependent induction of pMEK
[8]
  hit ranking / mean viability difference with AZ-628: notable hits; also recorded: among the top hits of the screen
[12]
  RAS-GTP levels: dose-dependent induction of RAS-GTP levels
[12]; listed as Pictilisib
  RAS-GTP levels: increase levels of RAS-GTP (albeit at higher concentrations) similar to that induced by cobimetinib

## O=C(NC[C@H](O)CO)c1ccncc1Nc1ccc(I)cc1F [pimasertib]
[8]
  hit ranking / mean viability difference with AZ-628: scored highest among the compounds tested

## COc1cc(F)c(F)c(Nc2ccc(I)cc2F)c1NS(=O)(=O)C1(C[C@H](O)CO)CC1 [refametinib]
[8]
  hit ranking / mean viability difference with AZ-628: scored highest among the compounds tested

## Cc1nc(-c2cn3c(n2)-c2ccc(-c4cnn(C(C)(C)C(N)=O)c4)cc2OCC3)n(C(C)C)n1 [taselisib]
[1]; 24 hours
  induction of pMEK by PI3K inhibition: doing so at lower concentrations
[8]
  hit ranking / mean viability difference with AZ-628: notable hits
